Data taken from US20100056983A1, “Treatment of cancer using photodynamic therapy” (Health Research, Inc., priority 2007, published 2010).
Marks after values point to notes of the source that are not given here.

Experiments:
[1] = system: squamous cell carcinoma of the larynx; conditions: cited from earlier work
T1 recurrent lesions = conditions: 26 patients, follow up of 6 to 51 months; cited from earlier work
[2] = Duration of cutaneous photosensitivity after the photosensitizer; type: in vivo
Description: Further, porfimer sodium is activated by light at 630 nm, which is suboptimal for tissue penetration. In addition, in tissues found in the upper respiratory system, side effects to normal tissue proximate to a tumor site has been greater than desirable, e.g. edema and normal tissue destruction, sometimes contributing to weeks for recovery and in some cases possibly causing permanent injury to normal proximate tissue. These drawbacks have led to a search for other photosensitizers without these limitations. This is especially important with respect to cancers that interfere with respiration, e.g. nose, mouth, pharynx, larynx and trachea. Temporary interference with digestive function can be tolerated since the body can cope without food input for a significant period of time and additionally, intravenous feeding can be readily done for temporary nutrition. The same case can of course not be made when respiration is involved since interference with respiration for even a short period is exceedingly distressful and in extreme cases can be fatal. In the case of cancers that involve the upper respiratory system it is therefore exceedingly important that damage to normal tissue be avoided. […]

[3] = Ratio of normal tissue levels of two photosensitizers in mice to tumor levels; type: in vivo; conditions: 24 h post injection
Description: A table showing relative concentrations in normal tissue and cancer tissue for various tissue types is shown below. Ratios are shown in the form of concentration in normal tissue/concentration in tumor tissue. Lower numbers thus represent less PDT agent (HPPH or porfimer sodium) in normal tissue relative to concentration in tumor tissue. Lower concentrations in normal tissue would be expected to result in less tissue damage at tumor concentrations sufficient to destroy tumor tissue.
Ratios were obtained by dividing actual amounts of the photosensitizer in a given tissue by the amount in the tumor.
Data at 24 h post injection were used since this is the time the mice are treated by light, generally from a laser at non-thermal dose rates.

[4] = patients after PDT; cited from earlier work
[5] = system: cancers that involve epithelial type tissue in the upper respiratory system; assay: Effective photosensitizer dose for PDT of cancers in the upper respiratory system; type: in vivo, human
Experimental: HPPH is effective at doses of only 0.08 to 0.13 mg/kg of body weight (3.5 mg/m2 of body surface area) versus a minimum of 2 mg/kg of body weight for porfimer sodium.

[6] = system: high grade dysplasia / Barrett's mucosa; conditions: 2 mg/kg, 630±5 nm, 100 to 250 joules/cm, cited from earlier work
[7] = system: squamous cell carcinoma on their larynx; assay: HPPH-PDT of a patient with squamous cell carcinoma on the larynx (Example 1); type: in vivo, human
Experimental: A person presented with a squamous cell carcinoma on their larynx. They refused surgery and radiation therapy and chose photodynamic therapy treatment using HPPH (2-[1-hexyloxyethyl]-2-devinyl pyropheophorbide a). They were infused over one hour with HPPH at 4 mg/m^2 (about 0.1 mg/kg). The following day they received non-thermal low power laser light treatment (150 mw/cm) at 665 nm in order to activate the photodynamic process. The light was delivered by a single quartz fiber treaded through a laryngoscope. They received 50 Joules/cm of the 665 nm light over 5.5 min.

[8] = system: squamous cell carcinoma of the floor of the mouth; assay: HPPH-PDT of a patient with squamous cell carcinoma of the floor of the mouth (Example 2); type: in vivo, human
Experimental: A person presented with a squamous cell carcinoma of the floor of the mouth. They chose to have photodynamic therapy with HPPH (2-[1-hexyloxyethyl]-2-devinyl propheophorbide—a) rather than surgery or radiation therapy. They were infused with 4 mg/m^2 HPPH. The following day they received non-thermal low power laser light (150 mw/cm) at 665 nm in order to activate photodynamic process. The light was delivered by a single quartz fiber threaded through a laryngoscope. They received 50 Joules/cm of the 665 nm light over 5.5 min. […] This was resolved when examined 30 days after treatment.

[9] = normalized to 5 mg/kg from data obtained at 27 mg/kg
[10] = 4 mg/m^2 HPPH, 50 Joules/cm at 665 nm

porfimer sodium
Recurrences ([1]; 117 patients treated for cure, follow-up to 189 months (mean 84 months)): 10
Adverse reactions ([1]; 117 patients with squamous cell carcinoma of the larynx): edema and erythema
Complete response (T1 recurrent lesions): 77%
Duration of prolonged cutaneous photosensitivity ([2]; patients after PDT): 4-6 weeks
Ratio concentration in normal tissue/concentration in tumor tissue: Adrenals [3, 9]: 6.5^###
Ratio concentration in normal tissue/concentration in tumor tissue: Brain [3, 9]: 0.05^###
Ratio concentration in normal tissue/concentration in tumor tissue: Kidney [3]: 4
Ratio concentration in normal tissue/concentration in tumor tissue: Liver [3]: 7
Ratio concentration in normal tissue/concentration in tumor tissue: Lung [3]: 1.7
Ratio concentration in normal tissue/concentration in tumor tissue: Muscle [3]: 0.33
Ratio concentration in normal tissue/concentration in tumor tissue: Pancreas [3, 9]: 4.3^###
Ratio concentration in normal tissue/concentration in tumor tissue: Skin [3]: about 0.93
Ratio concentration in normal tissue/concentration in tumor tissue: Skin ([3]; listed as PHOTOFRIN): 0.93
Ratio concentration in normal tissue/concentration in tumor tissue: Spleen [3, 9]: 3.1^###
Ratio concentration in normal tissue/concentration in tumor tissue: Urinary Bladder [3, 9]: 5.9^###
Absolute Tumor Levels [3]: 1.05 µg/g
Period of complete protection from sunlight and bright light because of skin photosensitization [4]: up to 90 days
Effective dose ([5]; with light exposure (HPPH 665±5 nm)): ≥ 2 mg/kg of body weight
Destruction of high grade dysplasia ([6]; 100 patients): all patients treated
Patients with complete ablation of Barrett's mucosa ([6]; 100 patients): 43%
Patients with esophageal strictures ([6]; all patients treated): 34%
Patients with complete ablation of Barrett's mucosa with PDT treatment only [6]: 8%
Patients with complete ablation who required thermal ablation of small residual islands [6]: 35%

CCCCCCOC(C)c1c(C)c2cc3nc(c4c5[nH]c(cc6nc(cc1[nH]2)C(C)=C6CC)c(C)c5C(=O)C4)[C@@H](CCC(=O)O)[C@@H]3C (stereo partly shown) [HPPH, 2-(1-hexyloxyethyl)-2-devinyl pyropheophorbide-a]
Effect upon normal tissue [7, 10]: No affect upon normal tissue
Skin photosensitivity [7, 10]: no skin photosensitivity
Response to treatment ([7]; 4 mg/m^2 HPPH, 50 Joules/cm at 665 nm next day, second follow up at 3 months): complete response
Adverse effects after treatment ([7]; completely resolved at first follow up 30 days after treatment): transient edema and hoarseness of voice
Duration of prolonged cutaneous photosensitivity ([2]; in vivo): 1-2 weeks
Ratio concentration in normal tissue/concentration in tumor tissue: Adrenals [3]: 0.95
Ratio concentration in normal tissue/concentration in tumor tissue: Brain [3]: 0.01
Ratio concentration in normal tissue/concentration in tumor tissue: Kidney [3]: 0.12
Ratio concentration in normal tissue/concentration in tumor tissue: Liver [3]: 1.9
Ratio concentration in normal tissue/concentration in tumor tissue: Lung [3]: 2.7
Ratio concentration in normal tissue/concentration in tumor tissue: Muscle [3]: 0.095
Ratio concentration in normal tissue/concentration in tumor tissue: Pancreas [3]: 0.11
Ratio concentration in normal tissue/concentration in tumor tissue: Spleen [3]: 0.14
Ratio concentration in normal tissue/concentration in tumor tissue: Urinary Bladder [3]: 0.11
Absolute Tumor Levels [3]: 3 µg/g
Effect upon normal tissue [8, 10]: No effect upon normal tissue
Skin photosensitivity [8, 10]: no skin photosensitivity
Response to treatment ([8]; 4 mg/m^2 HPPH, 50 Joules/cm at 665 nm next day, follow up at 6 months, confirmed by biopsy): complete response
Adverse effects after treatment ([8]; controlled with analgesics, resolved when examined 30 days after treatment): transient moderate pain at the treatment site
Effective dose per body surface area ([5]; with light exposure at 665±5 nm): 3.5 mg/m2 of body surface area
